Experimental findings from patent US20210395239A1 (Hoffmann-La Roche Inc., priority 2018, published 2021) are described below.

The structures appear in SMILES notation.

In this experiment the target is T1, human TLR8 (Homo sapiens, UniProt Q9NR97).
T1 construct: host or cells: HEK293 (HEK-Blue hTLR8)
T1 sequence (Q9NR97 27-1041): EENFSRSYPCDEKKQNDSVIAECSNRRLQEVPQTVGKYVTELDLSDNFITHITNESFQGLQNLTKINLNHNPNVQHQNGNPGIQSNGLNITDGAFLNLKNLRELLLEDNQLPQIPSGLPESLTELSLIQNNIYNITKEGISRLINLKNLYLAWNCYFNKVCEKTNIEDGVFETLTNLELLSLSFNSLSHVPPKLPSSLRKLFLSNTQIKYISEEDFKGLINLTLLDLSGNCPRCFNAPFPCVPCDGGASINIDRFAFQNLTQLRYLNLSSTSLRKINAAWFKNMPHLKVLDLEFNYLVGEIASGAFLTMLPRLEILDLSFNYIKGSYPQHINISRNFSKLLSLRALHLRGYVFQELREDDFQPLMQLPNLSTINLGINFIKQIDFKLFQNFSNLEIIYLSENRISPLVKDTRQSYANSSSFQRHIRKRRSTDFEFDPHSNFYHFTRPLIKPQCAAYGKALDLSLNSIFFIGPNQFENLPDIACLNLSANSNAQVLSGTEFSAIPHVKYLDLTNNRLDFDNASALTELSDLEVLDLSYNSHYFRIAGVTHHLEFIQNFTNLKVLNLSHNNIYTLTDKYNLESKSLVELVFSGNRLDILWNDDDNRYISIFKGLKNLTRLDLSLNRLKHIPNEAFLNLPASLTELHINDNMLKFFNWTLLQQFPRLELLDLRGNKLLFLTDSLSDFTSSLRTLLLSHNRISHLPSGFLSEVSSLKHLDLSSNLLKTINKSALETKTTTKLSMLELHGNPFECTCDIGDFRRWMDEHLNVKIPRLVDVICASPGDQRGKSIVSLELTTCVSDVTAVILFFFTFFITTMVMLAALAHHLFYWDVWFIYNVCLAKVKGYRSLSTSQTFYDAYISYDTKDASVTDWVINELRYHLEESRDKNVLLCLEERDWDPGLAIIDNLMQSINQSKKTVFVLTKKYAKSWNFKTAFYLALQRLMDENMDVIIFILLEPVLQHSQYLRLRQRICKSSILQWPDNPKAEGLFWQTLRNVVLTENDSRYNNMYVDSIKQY
Nature of the experiment: HEK293-Blue-hTLR-8 cells assay (SEAP reporter, R848 stimulation). The note with it: HEK293-Blue-hTLR8 cells, R848, 20 hrs; read-out: HEK/hTLR8 IC50. In kind it is cell-based. In short, it runs like this: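 Antagonism read as reduced R848-induced SEAP reporter secretion, detected by QUANTI-Blue absorbance at 620–655 nm after 2 h. Reporter cells were exposed to compound dilutions in DMEM/10% FBS, 1% DMSO, for 20 h at 37° C.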
For `Cc1cc(N2CCN(C[C@H]3CN(c4ccc(C#N)c5ncccc45)C[C@@H](C)O3)CC2)nc(N2C[C@H](N)C[C@H](F)C2)n1` (relative stereo) [Example 74, 5-[(2R,6S)-2-methyl-6-[[4-[6-methyl-2-[cis-3-amino-5-fluoro-1-piperidyl]pyrimidin-4-yl]piperazin-1-yl]methyl]morpholin-4-yl]quinoline-8-carbonitrile], the IC50 was 3 nM.

With `Cc1cc(N2CCN(C[C@H]3CN(c4ccc(C#N)c5ncccc45)C[C@@H](C)O3)CC2)nc(N2C[C@H](N)C[C@@H](F)C2)n1` (relative stereo) [Example 75, 5-[(2R,6S)-2-methyl-6-[[4-[6-methyl-2-[trans-3-amino-5-fluoro-1-piperidyl]pyrimidin-4-yl]piperazin-1-yl]methyl]morpholin-4-yl]quinoline-8-carbonitrile], the IC50 was found to be 3 nM.

`CO[C@H]1CN(c2nc(C)cc(N3CCN(C[C@H]4CN(c5ccc(C#N)c6ncccc56)C[C@@H](C)O4)CC3)n2)C[C@@H]1N` (single isomer, unassigned) [Example 69A]: the IC50 was determined as 2 nM.

`CO[C@@H]1CN(c2nc(C)cc(N3CCN(C[C@H]4CN(c5ccc(C#N)c6ncccc56)C[C@@H](C)O4)CC3)n2)C[C@H]1N` (single isomer, unassigned) [Example 69B]: the IC50 worked out at 2 nM.

As for `Cc1cc(N2CCN(C[C@H]3CN(c4ccc(C#N)c5ncccc45)C[C@@H](C)O3)CC2)nc(N2CC[C@@H](F)C(N)C2)n1` (single isomer, unassigned) [Example 84], the IC50 stood at 7 nM.

Consider `COC1CN(c2nc(C)cc(N3CCN(C[C@H]4CN(c5ccc(C#N)c6ncccc56)C[C@@H](C)O4)CC3)n2)CC1N` (single isomer, unassigned) [Example 88], for which the IC50 turned out to be 2 nM.

`COC1CNCC1Nc1nc(C)cc(N2CCN(C[C@H]3CN(c4ccc(C#N)c5ncccc45)C[C@@H](C)O3)CC2)n1` (stereo in doubt) [Example 70, 5-[(2S,6R)-2-[[4-[2-[[(3R,4R)-4-methoxypyrrolidin-3-yl]amino]-6-methyl-pyrimidin-4-yl]piperazin-1-yl]methyl]-6-methyl-morpholin-4-yl]quinoline-8-carbonitrile]: the IC50 turned out to be 12 nM.

As to `Cc1cc(N2CCN(C[C@H]3CN(c4ccc(C#N)c5ncccc45)C[C@@H](C)O3)CC2)nc(NC2CNCC2F)n1` (stereo in doubt) [Example 73, 5-[(2S,6R)-2-[[4-[2-[[(3S,4R)-4-fluoropyrrolidin-3-yl]amino]-6-methyl-pyrimidin-4-yl]piperazin-1-yl]methyl]-6-methyl-morpholin-4-yl]quinoline-8-carbonitrile], the IC50 is 17 nM.

For `Cc1cc(N2CCN(C[C@H]3CN(c4ccc(C#N)c5ncccc45)C[C@@H](C)O3)CC2)nc(N2CC[C@@H](N)C(F)C2)n1` (stereo in doubt) [Example 82, 5-[(2S,6R)-2-[[4-[2-[(3R,4R)-4-amino-3-fluoro-1-piperidyl]-6-methyl-pyrimidin-4-yl]piperazin-1-yl]methyl]-6-methyl-morpholin-4-yl]quinoline-8-carbonitrile], the IC50 came out at 1 nM.

For `CO[C@H]1CN(c2nc(C)cc(N3CCN(C[C@H]4CN(c5ccc(C#N)c6ncccc56)C[C@@H](C)O4)CC3)n2)CCC1N` (stereo in doubt) [Example 90, 5-[(2S,6R)-2-[[4-[2-[(3S,4S)-4-amino-3-methoxy-1-piperidyl]-6-methyl-pyrimidin-4-yl]piperazin-1-yl]methyl]-6-methyl-morpholin-4-yl]quinoline-8-carbonitrile], the IC50 came out at 2 nM.

As to `Cc1cc(N2CCN(C[C@H]3CN(c4ccc(C#N)c5ncccc45)C[C@@H](C)O3)CC2)nc(N[C@@H]2CNC[C@@H]2F)n1` [Example 71, 5-[(2S,6R)-2-[[4-[2-[[(3R,4S)-4-fluoropyrrolidin-3-yl]amino]-6-methyl-pyrimidin-4-yl]piperazin-1-yl]methyl]-6-methyl-morpholin-4-yl]quinoline-8-carbonitrile], the IC50 stood at 15 nM.

As for `CO[C@@H]1CN(c2nc(C)cc(N3CCN(C[C@H]4CN(c5ccc(C#N)c6ncccc56)C[C@@H](C)O4)CC3)n2)C[C@@H]1N` [Example 72, 5-[(2S,6R)-2-[[4-[2-[(3S,4R)-3-amino-4-methoxy-pyrrolidin-1-yl]-6-methyl-pyrimidin-4-yl]piperazin-1-yl]methyl]-6-methyl-morpholin-4-yl]quinoline-8-carbonitrile], the IC50 is 3 nM.

Regarding `Cc1cc(N2CCN(C[C@H]3CN(c4ccc(C#N)c5ncccc45)C[C@@H](C)O3)CC2)nc(N[C@@H]2CNC[C@H]2F)n1` [Example 76, 5-[(2S,6R)-2-[[4-[2-[[(3R,4R)-4-fluoropyrrolidin-3-yl]amino]-6-methyl-pyrimidin-4-yl]piperazin-1-yl]methyl]-6-methyl-morpholin-4-yl]quinoline-8-carbonitrile], the IC50 was found to be 3 nM.

For `Cc1cc(N2CCN(C[C@H]3CN(c4ccc(C#N)c5ncccc45)C[C@@H](C)O3)CC2)nc(N2C[C@@H](N)C[C@@H](F)C2)n1` [Example 77, 5-[(2S,6R)-2-[[4-[2-[(3S,5R)-3-amino-5-fluoro-1-piperidyl]-6-methyl-pyrimidin-4-yl]piperazin-1-yl]methyl]-6-methyl-morpholin-4-yl]quinoline-8-carbonitrile], the IC50 is 2 nM.

In the case of `Cc1cc(N2CCN(C[C@H]3CN(c4ccc(C#N)c5ncccc45)C[C@@H](C)O3)CC2)nc(N2CC[C@@H](N)[C@@H](F)C2)n1` [Example 78, 5-[(2S,6R)-2-[[4-[2-[(3S,4R)-4-amino-3-fluoro-1-piperidyl]-6-methyl-pyrimidin-4-yl]piperazin-1-yl]methyl]-6-methyl-morpholin-4-yl]quinoline-8-carbonitrile], the IC50 is 1 nM.

With `Cc1cc(N2CCN(C[C@H]3CN(c4ccc(C#N)c5ncccc45)C[C@@H](C)O3)CC2)nc(N2C[C@@H](N)[C@H](F)C2)n1` [Example 79, 5-[(2S,6R)-2-[[4-[2-[(3R,4R)-3-amino-4-fluoro-pyrrolidin-1-yl]-6-methyl-pyrimidin-4-yl]piperazin-1-yl]methyl]-6-methyl-morpholin-4-yl]quinoline-8-carbonitrile], the IC50 was found to be 2 nM.

Regarding `Cc1cc(N2CCN(C[C@H]3CN(c4ccc(C#N)c5ncccc45)C[C@@H](C)O3)CC2)nc(N2CC(N)CC(F)(F)C2)n1` (stereo partly drawn) [Example 80, 5-[(2S,6R)-2-[[4-[2-(5-amino-3,3-difluoro-1-piperidyl)-6-methyl-pyrimidin-4-yl]piperazin-1-yl]methyl]-6-methyl-morpholin-4-yl]quinoline-8-carbonitrile], the IC50 turned out to be 6 nM.

As for `Cc1cc(N2CCN(C[C@H]3CN(c4ccc(C#N)c5ncccc45)C[C@@H](C)O3)CC2)nc(N2CCNC(C(C)(C)O)C2)n1` (stereo partly drawn) [Example 81, 5-[(2S,6R)-2-[[4-[2-[3-(1-hydroxy-1-methyl-ethyl)piperazin-1-yl]-6-methyl-pyrimidin-4-yl]piperazin-1-yl]methyl]-6-methyl-morpholin-4-yl]quinoline-8-carbonitrile], the IC50 stood at 2 nM.

As to `Cc1cc(N2CCN(C[C@H]3CN(c4ccc(C#N)c5ncccc45)C[C@@H](C)O3)CC2)nc(N2CC[C@@H](F)[C@@H](N)C2)n1` [Example 83, 5-[(2R,6S)-2-methyl-6-[[4-[6-methyl-2-[(3S,4R)-3-amino-4-fluoro-1-piperidyl]-pyrimidin-4-yl]piperazin-1-yl]methyl]morpholin-4-yl]quinoline-8-carbonitrile], the IC50 is 3 nM.

For `Cc1cc(N2CCN(C[C@H]3CN(c4ccc(C#N)c5ncccc45)C[C@@H](C)O3)CC2)nc(N2CCC(N)C(F)(F)C2)n1` (stereo partly drawn) [Example 86, 5-[(2S,6R)-2-[[4-[2-(4-amino-3,3-difluoro-1-piperidyl)-6-methyl-pyrimidin-4-yl]piperazin-1-yl]methyl]-6-methyl-morpholin-4-yl]quinoline-8-carbonitrile], the IC50 was 6 nM.

For `Cc1cc(N2CCN(C[C@H]3CN(c4ccc(C#N)c5ncccc45)C[C@@H](C)O3)CC2)nc(N2CC(N)C2)n1` [Example 87, 5-[(2S,6R)-2-[[4-[2-(3-aminoazetidin-1-yl)-6-methyl-pyrimidin-4-yl]piperazin-1-yl]methyl]-6-methyl-morpholin-4-yl]quinoline-8-carbonitrile], the IC50 was found to be 2 nM.

Take `C[C@@H]1CN(c2ccc(C#N)c3ncccc23)C[C@H](CN2CCN(c3ccccc3C3CNCCO3)CC2)O1` (stereo partly drawn) [Example 89, 5-[(2R,6S)-2-methyl-6-[[4-(2-morpholin-2-ylphenyl)piperazin-1-yl]methyl]morpholin-4-yl]quinoline-8-carbonitrile]: the IC50 stood at 29 nM.
